Measurements taken from publication PMC12717099, “Peptidoglycan recruitment by a penicillin binding protein” (Nature Communications, 2025).

Assays:
Type in all cases: binding, Enterococcus faecium
PBP5:PenG complex (1:8) = assay: NMR CSP titration of stem peptides into PenG-saturated PBP5; details: PBP5:PenG 1:8, then SP titration
Protocol: Data was processed using Topspin 4.1.4 (Bruker) and analyzed using NMRFAM-SPARKY 1.3 and Poky (build number 20240829)[20],[21]. The sequence-specific backbone assignment of PBP5 is publicly available at BMRBID 51690.
SPs (SP1 to SP7) were titrated into 0.5 mM (^2H,^15N)-labeled and 0.1 mM (^2H,^15N)/^13C ILV labeled PBP5 at molar ratios of 0:1, 5:1, 10:1, 20:1, 40:1, 60:1, and 80:1 (stem peptide/SP:PBP5; molar ratios). 2D [^1H,^15N] TROSY or 2D [^1H,^13C] HMQC spectra were recorded for each titration point. SPs were solubilized in NMR buffer. Chemical shift perturbations (Δδ) between PBP5 and SP bound PBP5 spectra were calculated using Eq. 1,1 Δδppm=ΔδH^2+ΔδX/Y^2 where, X is ^15N or ^13C and Y is the constant i.e., 10 for ^15N and 4 for ^13C.
Residues with significant CSPs were identified by calculating the standard deviation of all CSPs (σ), then excluding any CSPs larger than average+2σ, recalculating σ as a new corrected σ0, and then repetitively removing CSPs above 2σ0 until no additional CSPs can be removed. CSPs above ≥2σ2 was the statistical threshold for ^1H/^15N backbone CSP analysis and ≥2xσ1 for ^1H/^13C methyl ILV data for the interaction of SP1 with PBP5. The same threshold values were used for all other peptides to allow for direct comparison with the SP1/PBP5 interaction. […]

PBP5 = assay: 1D 1H STD NMR of stem peptides with PBP5; details: for STD % to SP1: normalised to highest SP1:PBP5 value; for STD amplification factor: protein:peptide 1:100, 2 s saturation, 308 K
Description: (§1) Total saturation time for STD measurements was 2 s.
(§2) Overlapped peaks were completely excluded from the analysis.

PBP5:PenG complex = assay: 1D 1H STD NMR of stem peptides with PBP5:PenG; details: for STD amplification factor: PenG-saturated PBP5, 2 s saturation
Description: as §1, §2

For D-Lac-L-Ala-D-iGln-L-Lys(D-iAsn) [SP2], the “CSPs in presence vs absence of penicillin, in words” value (PBP5:PenG complex (1:8)) was “nearly identical”, the “STD amplification factor as fraction of highest SP1:PBP5 value” (from here on “STD amplification factor as fraction”) (PBP5; 1H DLacβ) was 0.3338 and the “STD % to SP1” value (PBP5; 1H DLacβ) was 33.3802%. For the same substance, the STD amplification factor (PBP5; 1H DLacβ) was 8.982, the “STD amplification factor as fraction” value (PBP5; 1H DQ2β (first listed)) was 0.6658 and the “STD % to SP1” value (PBP5; 1H DQ2β (first listed)) was 66.5792%. For the same substance, the STD amplification factor (PBP5; 1H DQ2β (first listed)) was 17.9154, the “STD amplification factor as fraction” value (PBP5; 1H DQ2β (second listed)) was 0.8494 and the “STD % to SP1” value (PBP5; 1H DQ2β (second listed)) was 84.9407%. For the same substance, the STD amplification factor (PBP5; 1H DQ2β (second listed)) was 22.8562, the “STD amplification factor as fraction” value (PBP5; 1H DQ2γ) was 0.2468 and the “STD % to SP1” value (PBP5; 1H DQ2γ) was 24.6819%. For the same substance, the STD amplification factor (PBP5; 1H DQ2γ) was 6.6415, the “STD amplification factor as fraction” value (PBP5; 1H K3α) was 0.4302 and the “STD % to SP1” value (PBP5; 1H K3α) was 43.0201%. The STD amplification factor (PBP5; 1H K3α) was 11.576, the “STD amplification factor as fraction” value (PBP5; 1H K3β) was 0.9507 and the “STD % to SP1” value (PBP5; 1H K3β) was 95.0654%. The STD amplification factor (PBP5; 1H K3β) was 25.5806, the “STD amplification factor as fraction” value (PBP5; 1H K3γ) was 0.5906 and the “STD % to SP1” value (PBP5; 1H K3γ) was 59.0623%. The STD amplification factor (PBP5; 1H K3γ) was 15.8927, the “STD amplification factor as fraction” value (PBP5; 1H K3δ) was 0.6971 and the “STD % to SP1” value (PBP5; 1H K3δ) was 69.7058%. The STD amplification factor (PBP5; 1H K3δ) was 18.7567, the “STD amplification factor as fraction” value (PBP5; 1H K3ε) was 0.1751 and the “STD % to SP1” value (PBP5; 1H K3ε) was 17.5055%. For the same substance, the STD amplification factor (PBP5; 1H K3ε) was 4.71, the “STD amplification factor as fraction” value (PBP5; 1H LA1α) was 0.3317 and the “STD % to SP1” value (PBP5; 1H LA1α) was 33.1655%. For the same substance, the STD amplification factor (PBP5; 1H LA1α) was 8.924, the “STD amplification factor as fraction” value (PBP5; 1H LA1β) was 0.3463 and the “STD % to SP1” value (PBP5; 1H LA1β) was 34.6271%. The STD amplification factor (PBP5; 1H LA1β) was 9.318, the “STD amplification factor as fraction” value (PBP5; 1H iNα,DQ2α) was 0.2066 and the “STD % to SP1” value (PBP5; 1H iNα,DQ2α) was 20.663%. For the same substance, the STD amplification factor (PBP5; 1H iNα,DQ2α) was 5.56, the “STD amplification factor as fraction” value (PBP5; 1H iNβ) was 0.2856 and the “STD % to SP1” value (PBP5; 1H iNβ) was 28.5568%. For the same substance, the STD amplification factor (PBP5; 1H iNβ) was 7.684, the “STD amplification factor, ref to SP1 (fraction)” value (PBP5:PenG complex; 1H DLacβ) was 0.3213 and the “STD, ref to SP1 (percent)” value (PBP5:PenG complex; 1H DLacβ) was 32.1311. For the same substance, the STD amplification factor (PBP5:PenG complex; 1H DLacβ) was 8.646, the “STD amplification factor, ref to SP1 (fraction)” value (PBP5:PenG complex; 1H DQ2β (first listed)) was 0.7026 and the “STD, ref to SP1 (percent)” value (PBP5:PenG complex; 1H DQ2β (first listed)) was 70.2576. The STD amplification factor (PBP5:PenG complex; 1H DQ2β (first listed)) was 18.9052, the “STD amplification factor, ref to SP1 (fraction)” value (PBP5:PenG complex; 1H DQ2β (second listed)) was 0.9395 and the “STD, ref to SP1 (percent)” value (PBP5:PenG complex; 1H DQ2β (second listed)) was 93.9523. For the same substance, the STD amplification factor (PBP5:PenG complex; 1H DQ2β (second listed)) was 25.2811, the “STD amplification factor, ref to SP1 (fraction)” value (PBP5:PenG complex; 1H DQ2γ) was 0.3025 and the “STD, ref to SP1 (percent)” value (PBP5:PenG complex; 1H DQ2γ) was 30.2481. The STD amplification factor (PBP5:PenG complex; 1H DQ2γ) was 8.139, the “STD amplification factor, ref to SP1 (fraction)” value (PBP5:PenG complex; 1H K3α) was 0.5268 and the “STD, ref to SP1 (percent)” value (PBP5:PenG complex; 1H K3α) was 52.6829. For the same substance, the STD amplification factor (PBP5:PenG complex; 1H K3α) was 14.1761, the “STD amplification factor, ref to SP1 (fraction)” value (PBP5:PenG complex; 1H K3β) was 1.026 and the “STD, ref to SP1 (percent)” value (PBP5:PenG complex; 1H K3β) was 102.583. For the same substance, the STD amplification factor (PBP5:PenG complex; 1H K3β) was 27.6034, the “STD amplification factor, ref to SP1 (fraction)” value (PBP5:PenG complex; 1H K3γ) was 0.589 and the “STD, ref to SP1 (percent)” value (PBP5:PenG complex; 1H K3γ) was 58.9034. For the same substance, the STD amplification factor (PBP5:PenG complex; 1H K3γ) was 15.8499, the “STD amplification factor, ref to SP1 (fraction)” value (PBP5:PenG complex; 1H K3δ) was 0.6424 and the “STD, ref to SP1 (percent)” value (PBP5:PenG complex; 1H K3δ) was 64.2392. For the same substance, the STD amplification factor (PBP5:PenG complex; 1H K3δ) was 17.2857, the “STD amplification factor, ref to SP1 (fraction)” value (PBP5:PenG complex; 1H K3ε) was 0.1756 and the “STD, ref to SP1 (percent)” value (PBP5:PenG complex; 1H K3ε) was 17.5552. The STD amplification factor (PBP5:PenG complex; 1H K3ε) was 4.724, the “STD amplification factor, ref to SP1 (fraction)” value (PBP5:PenG complex; 1H LA1α) was 0.4522 and the “STD, ref to SP1 (percent)” value (PBP5:PenG complex; 1H LA1α) was 45.2214. For the same substance, the STD amplification factor (PBP5:PenG complex; 1H LA1α) was 12.1683, the “STD amplification factor, ref to SP1 (fraction)” value (PBP5:PenG complex; 1H LA1β) was 0.3642 and the “STD, ref to SP1 (percent)” value (PBP5:PenG complex; 1H LA1β) was 36.4217. For the same substance, the STD amplification factor (PBP5:PenG complex; 1H LA1β) was 9.8, the “STD amplification factor, ref to SP1 (fraction)” value (PBP5:PenG complex; 1H iNα,DQ2α) was 0.2492 and the “STD, ref to SP1 (percent)” value (PBP5:PenG complex; 1H iNα,DQ2α) was 24.9206. For the same substance, the STD amplification factor (PBP5:PenG complex; 1H iNα,DQ2α) was 6.706, the “STD amplification factor, ref to SP1 (fraction)” value (PBP5:PenG complex; 1H iNβ) was 0.3249 and the “STD, ref to SP1 (percent)” value (PBP5:PenG complex; 1H iNβ) was 32.4924. The STD amplification factor (PBP5:PenG complex; 1H iNβ) was 8.743.
